The target of assay [1] is T1, Recombinant human TYK2 catalytic domain (amino acids 871-1187) (Homo sapiens, UniProt P29597).
T1 construct: catalytic domain (amino acids 871-1187)
T1 sequence (P29597 871-1187): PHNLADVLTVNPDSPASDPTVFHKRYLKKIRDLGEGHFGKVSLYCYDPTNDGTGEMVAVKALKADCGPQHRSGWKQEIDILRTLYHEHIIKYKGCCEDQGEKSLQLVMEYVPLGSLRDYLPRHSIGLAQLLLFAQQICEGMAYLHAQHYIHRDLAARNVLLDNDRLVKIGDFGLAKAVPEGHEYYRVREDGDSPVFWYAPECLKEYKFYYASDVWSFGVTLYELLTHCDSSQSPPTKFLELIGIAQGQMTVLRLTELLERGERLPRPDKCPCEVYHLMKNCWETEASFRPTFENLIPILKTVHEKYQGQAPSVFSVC
The assay is described as follows: TYK2 radioactive assay polyGT substrate. Further: 0.1 µM ATP. It is filed as biochemical. The procedure:
After 120 min at 30° C., reactions were stopped by adding 25 μL/well of 150 mM phosphoric acid. […] Plates were washed 6 times with 300 μL per well of a 75 mM phosphoric acid solution and the bottom of the plates is sealed. […] Kinase activity is calculated by subtracting counts per min (cpm) obtained in the presence of a positive control inhibitor (10 μM staurosporine) from cpm obtained in the presence of vehicle. The ability of a test compound to inhibit this activity (or percentage inhibition) is determined as: […]
cpm test compound=cpm determined for sample with test compound present cpm control=cpm determined for sample with positive control inhibitor cpm vehicle=cpm determined in the presence of vehicle
Dose dilution series were prepared for the compounds enabling the testing of dose-response effects in the TYK2 assay and the calculation of the IC50 for each compound. Each compound is routinely tested at concentration of 20 μM followed by a 1/5 serial dilution, 10 points in a final concentration of 1% DMSO.

The test system of assay [2] is IFNα activation of STAT1 in PBMC. In words: IFNα activation of STAT1 in PBMC. The format is cell-based. The conditions noted are these: Homo sapiens; IFNα activation of STAT1 in PBMC; average IC50; read-out: IFNα signaling inhibitory potency IC50. The method, then: After these 2 wash steps the cell pellet is dissolved in ammonium chloride buffer (1.5 M NH4Cl, 100 mM NaHCO3 and 10 mM Na2.EDTA) for lysis of the red blood cells.
PBMC are treated with test compound for 30 min at 37° C. 5% CO2. […] After 30 min of test compound/vehicle pre-treatment, PBMC are stimulated for 30 min at 37° C. 5% CO2 with recombinant human IFNα (PeproTech, catalog number 300-02A) at a final concentration of 5 ng/mL by addition of 20 μL (10× concentrated) cytokine trigger to obtain a final volume of 200 μL per well.
After 30 min of cytokine stimulation, 200 μL of cell suspension is transferred to a 96-well V-bottom plate, centrifugated for 5 min at 1000 rpm to pellet cells, followed by removal of supernatant.
(§1) The percentage inhibition is calculated as: […]
RCLU(vehicle control): Relative Chemiluminescent signal determined in presence of vehicle and trigger
RCLU(test compound): Relative Chemiluminescent signal determined in presence of test compounds and trigger
RCLU(positive control): Relative Chemiluminescent signal determined in presence of positive control and trigger
PIN values are plotted for compounds tested in dose-response and average IC50 values are derived using GraphiPad Prism Software applying non-linear regression (sigmoidal) curve fitting.

The test system of assay [3] is IL-12 activation of STAT4 in NK-92 cells. In words: IL-12 activation of STAT4 in NK-92 cells using AphaLISA SureFire technology. It is filed as cell-based. The conditions noted are these: Homo sapiens, NK92; IL-12 activation of STAT4 in NK-92 cells, AlphaLISA SureFire; average IC50; read-out: IL12 pSTAT4 IC50. The procedure:
IL-2 is added freshly to the medium with each medium refreshment step. Cells are cultured in a humidified incubator at 37° C. 5% CO2.
A subcultured fraction of NK-92 cells is washed once in culture medium without rhIL-2 the day before the experiment and incubated overnight in a culture flask.
5% CO2. […] NK-92 cells are triggered with rhIL-12 for 30 min at 37° C. 5% CO2.
After 30 min of cytokine stimulation the cells are lysed by addition of 15 μL 5× lysis buffer (supplemented with the AlphaLISA kit). After 10 minutes, plates are frozen at −80° C. overnight and the next day the levels of phospho-STAT4 are quantified using the AlphaLISA SureFire ULTRA p-STAT4 (Tyr693) (Perkin Elmer, Catalogue number ALSU-PST4-A10K) according to the manufacturers instructions. AlphaLISA signal (relative light units) is measured using an Envision (Perkin Elmer).
as §1
RLU(trigger/veh): Relative lumescent signal determined in presence of vehicle and trigger
RLU(test compound): Relative luminescent signal determined in presence of test compounds and trigger
PIN values are plotted for compounds tested in dose-response and IC50 values are derived using GraphPad Prism Software applying non-linear regression (sigmoidal) curve fitting. The data are expressed as the average IC50 from different experiments.
Background: In Alpha technology, singlet oxygen from a donor bead excites a nearby acceptor bead.

In general, IC50 refers to the concentration needed to halve the response being measured.

With `Cc1cc(C#N)ncc1Oc1cc(Nc2ccc(C(=O)N3CC[C@H](N(C)C)C3)cn2)c2ncn(C)c2n1` [Compound 133, 5-[7-[[5-[(3S)-3-(dimethylamino)pyrrolidine-1-carbonyl]pyridin-2-yl]amino]-3-methylimidazo[4,5-b]pyridin-5-yl]oxy-4-methylpyridine-2-carbonitrile], the IC50 in assay [1] came to 6.67 nM; in assay [2], 121 nM; in assay [3], 981 nM.
For `Cc1cc(C#N)ncc1Oc1cc(Nc2ccc(C(=O)N3CCO[C@H](C)C3)cn2)c2ncn(C)c2n1` [Compound 145, 4-methyl-5-[3-methyl-7-[[5-[(2R)-2-methylmorpholine-4-carbonyl]pyridin-2-yl]amino]imidazo[4,5-b]pyridin-5-yl]oxypyridine-2-carbonitrile] the same measures were 2 nM, 134 nM and 238 nM.
With `Cc1cc(C#N)ncc1Oc1cc(Nc2ccc(C(=O)N3CCOC[C@H]3C)cn2)c2ncn(C)c2n1` [Compound 146, 4-methyl-5-[3-methyl-7-[[5-[(3R)-3-methylmorpholine-4-carbonyl]pyridin-2-yl]amino]imidazo[4,5-b]pyridin-5-yl]oxypyridine-2-carbonitrile], the IC50 was found to be 1.15 nM in assay [1] and 122 nM in assay [2].
Turning to `Cc1cc(C#N)ncc1Oc1cc(Nc2ccc(C(=O)N3CC(CO)C3)cn2)c2ncn(C)c2n1` [Compound 118, 5-[7-[[5-[3-(hydroxymethyl)azetidine-1-carbonyl]-2-pyridyl]amino]-3-methyl-imidazo[4,5-b]pyridin-5-yl]oxy-4-methyl-pyridine-2-carbonitrile], the IC50 in assay [1] came out at 2.81 nM; in assay [2], 110 nM; in assay [3] it was 299 nM.
For the compound `Cc1cc(C#N)ncc1Oc1cc(Nc2ccc(C(=O)N3CCOC[C@@H]3C)cn2)c2ncn(C)c2n1` [Compound 147, 4-methyl-5-[3-methyl-7-[[5-[(3S)-3-methylmorpholine-4-carbonyl]pyridin-2-yl]amino]imidazo[4,5-b]pyridin-5-yl]oxypyridine-2-carbonitrile], the 50% inhibitory concentration (IC50) in assay [1] amounted to 1.66 nM; in assay [2], 121 nM; in assay [3] it was 213 nM.
Take `Cc1cc(C#N)ncc1Oc1cc(Nc2ccc(N3CCN(C)CC3)cn2)c2ncn(C)c2n1` [Compound 50, 4-methyl-5-[3-methyl-7-[[5-(4-methylpiperazin-1-yl)pyridin-2-yl]amino]imidazo[4,5-b]pyridin-5-yl]oxypyridine-2-carbonitrile]: the IC50 worked out at 5.54 nM in assay [1], 95 nM in assay [2] and 248 nM in assay [3].
The like results for `Cc1cc(C#N)ncc1Oc1cc(Nc2ccc(C(=O)N3CCN(C(C)C)CC3)cn2)c2ncn(C)c2n1` [Compound 46, 4-methyl-5-[3-methyl-7-[[5-(4-propan-2-ylpiperazine-1-carbonyl)pyridin-2-yl]amino]imidazo[4,5-b]pyridin-5-yl]oxypyridine-2-carbonitrile] were, in that order, 1.47 nM, 76 nM and 210 nM.
On to `Cc1cc(C#N)ncc1Oc1cc(Nc2ccc(C(=O)N3CC(O)(C4CC4)C3)cn2)c2ncn(C)c2n1` [Compound 113, 5-[7-[[5-(3-cyclopropyl-3-hydroxy-azetidine-1-carbonyl)-2-pyridyl]amino]-3-methyl-imidazo[4,5-b]pyridin-5-yl]oxy-4-methyl-pyridine-2-carbonitrile], for which the results for the IC50 in assay [1] and in assay [3] were 2.05 nM and 190 nM, respectively.
For the compound `Cc1cc(C#N)ncc1Oc1cc(Nc2ccc(C(=O)N3CC(CN(C)C)C3)cn2)c2ncn(C)c2n1` [Compound 132, 5-[7-[[5-[3-[(dimethylamino)methyl]azetidine-1-carbonyl]pyridin-2-yl]amino]-3-methylimidazo[4,5-b]pyridin-5-yl]oxy-4-methylpyridine-2-carbonitrile], the IC50 in assay [1] was found to be 8.93 nM.
Still for that read-out and setting: for `Cc1cc(C#N)ncc1Oc1cc(Nc2ccc(C(=O)N3CCOC(C4CC4)C3)cn2)c2ncn(C)c2n1` (centres unmarked) [Compound 156, 5-[7-[[5-(2-cyclopropylmorpholine-4-carbonyl)pyridin-2-yl]amino]-3-methylimidazo[4,5-b]pyridin-5-yl]oxy-4-methylpyridine-2-carbonitrile] the value was 1.75 nM; for `Cc1cc(C#N)ncc1Oc1cc(Nc2ccc(C(=O)NCCCO)cn2)c2ncn(C)c2n1` [Compound 101, 6-[[5-[(6-cyano-4-methyl-3-pyridyl)oxy]-3-methyl-imidazo[4,5-b]pyridin-7-yl]amino]-N-(3-hydroxypropyl)pyridine-3-carboxamide], 9.36 nM; for `Cc1cc(C#N)ncc1Oc1cc(Nc2ccc(C(=O)N3CCOCC3C3CC3)cn2)c2ncn(C)c2n1` (centres unmarked) [Compound 159, 5-[7-[[5-(3-cyclopropylmorpholine-4-carbonyl)pyridin-2-yl]amino]-3-methylimidazo[4,5-b]pyridin-5-yl]oxy-4-methylpyridine-2-carbonitrile], 1.02 nM.
Same read-out and setting: for `Cc1cc(C#N)ncc1Oc1cc(Nc2ccc(C(=O)N3CCOC(C(F)(F)F)C3)cn2)c2ncn(C)c2n1` (centres unmarked) [Compound 155, 4-methyl-5-[3-methyl-7-[[5-[2-(trifluoromethyl)morpholine-4-carbonyl]pyridin-2-yl]amino]imidazo[4,5-b]pyridin-5-yl]oxypyridine-2-carbonitrile] the value was 2.05 nM; for `CNC(=O)c1ccc(Nc2cc(Oc3cnc(C#N)cc3C)nc3c2ncn3C)cn1` [Compound 29, 5-[5-(6-Cyano-4-methyl-pyridin-3-yloxy)-3-methyl-3H-imidazo[4,5-b]pyridin-7-ylamino]-pyridine-2-carboxylic acid methylamide], 97.4 nM; for `COCCO[C@@H]1CCN(C(=O)c2ccc(Nc3cc(Oc4cnc(C#N)cc4C)nc4c3ncn4C)nc2)C1` [Compound 129, 5-[7-[[5-[(3R)-3-(2-methoxyethoxy)pyrrolidine-1-carbonyl]pyridin-2-yl]amino]-3-methylimidazo[4,5-b]pyridin-5-yl]oxy-4-methylpyridine-2-carbonitrile], 5.84 nM.
In the case of `Cc1cc(C#N)ncc1Oc1cc(Nc2ccc(C(=O)N(C)C)c(C)n2)c2ncn(C)c2n1` [Compound 77, 6-[[5-[(6-cyano-4-methyl-3-pyridyl)oxy]-3-methyl-imidazo[4,5-b]pyridin-7-yl]amino]-N,N,2-trimethyl-pyridine-3-carboxamide], in assay [1], the IC50 was determined as 2.98 nM.
The same measure, in the same setting: for `Cc1cc(C#N)ncc1Oc1cc(Nc2ccc(N3CCN(CC(F)(F)F)CC3)nn2)c2ncn(C)c2n1` [Compound 42, 4-Methyl-5-(3-methyl-7-{6-[4-(2,2,2-trifluoro-ethyl)-piperazin-1-yl]-pyridazin-3-ylamino}-3H-imidazo[4,5-b]pyridin-5-yloxy)-pyridine-2-carbonitrile] the value was 2.74 nM; for `Cc1cc(C#N)ncc1Oc1cc(Nc2ccc(C(=O)N3CC4(COC4)C3)cn2)c2ncn(C)c2n1` [Compound 134, 4-methyl-5-[3-methyl-7-[[5-(2-oxa-6-azaspiro[3.3]heptane-6-carbonyl)pyridin-2-yl]amino]imidazo[4,5-b]pyridin-5-yl]oxypyridine-2-carbonitrile], 2.1 nM.

For the origin of these results see patent publication US11564923B2, “Compounds and pharmaceutical compositions thereof for the treatment of inflammatory disorders” (Galapagos NV, priority 2017, dated 2023).
